According to US11339185B2, “Cyclic dinucleotides as anticancer agents” (Bristol-Myers Squibb Company, priority 2018, dated 2022):
Like-named read-outs stand apart in the source and are kept apart here.

Legend:
[1] = molecular target: T1, STING AQ: His-TVMV-S-hSTING(155-341)-G230A-R293Q (Homo sapiens, UniProt Q86WV6, G230A/H232R/R293Q); experiment: STING HTRF binding assay (time resolved FRET competition), STING AQ; conditions: 20 nM His-tagged STING AQ cytoplasmic domain, 40 nM fluorescein-labeled cGAMP analog probe, one hour; read-out: HTRF Binding Assays IC50 (μM) AQ
T1 construct: STING AQ: His-TVMV-S-hSTING(155-341)-G230A-R293Q
T1 sequence (Q86WV6 with tags, fused parts or gaps G230A/H232R/R293Q): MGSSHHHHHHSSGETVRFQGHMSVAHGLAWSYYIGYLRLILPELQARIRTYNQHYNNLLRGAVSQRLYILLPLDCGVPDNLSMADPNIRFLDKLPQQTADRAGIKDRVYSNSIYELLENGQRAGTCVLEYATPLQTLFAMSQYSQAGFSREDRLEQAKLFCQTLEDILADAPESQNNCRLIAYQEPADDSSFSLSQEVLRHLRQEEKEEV
Experimental: (§1) A time resolved FRET-based competition binding assay was used to assess test article binding to STING WT and STING AQ. His-tagged STING cytoplasmic domain (WT or AQ) at a concentration of 20 nM was incubated with 2.5 nM Tb-labeled anti-His antibody, test compound, and fluorescein-labeled cGAMP analog probe (BioLog cat. no. C195) at a concentration of 200 nM (STING WT) or 40 nM (STING AQ) in PBS containing 0.005% Tween-20 and 0.1% BSA for one hour. Fluorescence at 495 nm and 520 nm was measured using an EnVision microplate reader to quantify FRET between Tb-labeled anti-His antibody and fluorescein-labeled probe. Background was defined as the signal obtained in the absence of STING protein, and background subtracted FRET ratios were normalized to the maximum signal obtained in the absence of test compound. These values were converted to a percent inhibition. Percent inhibition was determined for test compounds at 11 concentrations. The IC50, defined as the concentration of competing test compound needed to reduce specific binding of the probe by 50%, was calculated using the 4 parameter logistic equation to fit the data

[2] = system: THP1-Dual cells, NF-κB pathway; experiment: STING THP1 Reporter Assay, NF-κB pathway (SEAP, QUANTI-Blue); assay type: cell-based; conditions: 10% human plasma, SEAP readout (OD620), 100% activation = 100 μM cGAMP, read-out: THP1 Reporter Assays EC50 (μM) NFkB
Description: (§2) THP1-Dual™ cells were derived from the human THP-1 monocyte cell line by stable integration of two inducible reporter constructs. To this end, THP1-Dual™ cells allow the simultaneous study of the NF-κB pathway, by monitoring the activity of SEAP, and the IRF pathway by assessing the activity of a secreted luciferase (Lucia). Both reporter proteins are readily measurable in the cell culture supernatant when using QUANTI-Blue™, a SEAP detection reagent, and QUANTI-Luc™, a luciferase detection reagent.
(§3) THP1-Dual™ cells induce the activation of NF-κB in response to STING agonists. They also trigger the IRF pathway upon stimulation with STING agonists, such as cGAMP. Here, the THP-1-Dual cells were used to assess STING binders for function on the cellular level.
(§4) Serial dilutions of compounds in DMSO were added to low volume 384 well plates at 100 nl/well using an ECHO acoustic dispenser (Labcyte, model 550) to achieve final starting concentration of 100 μM in cell suspension. THP-1 Dual™ STING reporter cells (Invivogen, Dual cells cat #THPD-nfis) were added to the plates with compounds at 15,000 cells in 10 μL per well in RPMI media (Gibco, cat #11875) containing 10% human plasma in a low volume 384-well black wall clear bottom tissue culture plate (Corning, cat #3542) for SEAP assay and low volume solid white plate (Corning, cat #3826) for luciferase assay. One column of the plate was reserved for treatment with cGAMP at 100 μM for 100% activation calculation and one column for no treatment (DMSO only) for baseline activation. Plates were then incubated in 37 OC incubator at 5% CO2 for 20 hours.
(§5) In the SEAP assay, 5 μl of 2× QuantiBlue (Invivogen, cat #Rep-qb2) is added to 384 well black plates seeded with THP1 cells and incubated at 37° C. for 2 hours. Plates were read on the Envision (Perkin Elmer) at 620 nm wavelength (OD620). In the luciferase assay, 5 μl of Quantiluc (Invivogen, Rep-qlc2) is added to white 384 well plates seeded with THP1 cells and read at 5 minutes on the Envision (Perkin Elmer) using a luminescence protocol (RLU). For both cell lines, 100% activation was determined by value (RLU) of THP-1 Dual STING cells stimulated with 100 μM cGAMP (Invivogen, cat #TLRL-NACGA23-5).

[3] = system: THP1-Dual cells, IRF pathway (IRF3); experiment: STING THP1 Reporter Assay, IRF pathway (secreted Lucia luciferase, QUANTI-Luc); assay type: cell-based; conditions: 10% human plasma, luciferase readout, 100% activation = 100 μM cGAMP, read-out: THP1 Reporter Assays EC50 (μM) IRF3
Description: as §2, §3, §4, §5

[4] = molecular target: T2, STING WT: His-TVMV-S-hSTING(155-341)-H232R (Homo sapiens, UniProt Q86WV6, H232R); experiment: STING HTRF binding assay (time resolved FRET competition), STING WT; conditions: 20 nM His-tagged STING WT cytoplasmic domain, 200 nM fluorescein-labeled cGAMP analog probe, one hour; read-out: HTRF Binding Assays IC50 (μM) WT
T2 construct: STING WT: His-TVMV-S-hSTING(155-341)-H232R
T2 sequence (Q86WV6 with tags, fused parts or gaps H232R): as the sequence (Q86WV6 with tags, fused parts or gaps G230A/H232R/R293Q) above, with A99G, Q162R counted along it
Experimental: as §1

| IC50 [1] [µM] | EC50 ([2]; 20 hours) [µM] | EC50 ([3]; 20 hours) [µM] | IC50 [4] [µM] | EC50 ([2]; Homo sapiens, THP1-Dual, 20 h) [µM] | EC50 ([3]; Homo sapiens, THP1-Dual, 20 h) [µM] | Compound |
| --- | --- | --- | --- | --- | --- | --- |
| > 100 | > 100 | > 100 | > 100 |  |  | NC(=O)c1cc([C@@H]2O[C@@H]3COP(=O)(S)OC[C@@H]4[C@@H](COP(=O)(S)O[C@@H]2[C@@H]3O)C[C@H]4n2cnc3c(N)ncnc32)ccn1 (single isomer, unassigned) [Example 20-1] |
| > 100 | > 100 | > 100 | > 100 |  |  | NC(=O)c1cc([C@@H]2O[C@@H]3COP(=O)(S)OC[C@@H]4[C@@H](COP(=O)(S)O[C@@H]2[C@@H]3O)C[C@H]4n2cnc3c(N)ncnc32)ccn1 (single isomer, unassigned) [Example 20-2] |
| 0.01 | 7.64 | 5.23 | 0.01 |  |  | NC(=O)c1cc([C@@H]2O[C@@H]3COP(=O)(S)OC[C@@H]4[C@@H](COP(=O)(S)O[C@@H]2[C@@H]3O)C[C@H]4n2cnc3c(N)ncnc32)ccn1 (single isomer, unassigned) [Example 20-3] |
| 35.7 | > 100 | > 100 | > 100 |  |  | NC(=O)c1cc([C@@H]2O[C@@H]3COP(=O)(S)OC[C@@H]4[C@@H](COP(=O)(S)O[C@@H]2[C@@H]3O)C[C@H]4n2cnc3c(N)ncnc32)ccn1 (single isomer, unassigned) [Example 20-4] |
| 0.004 | 25 | 5.36 | 0.15 |  |  | Nc1ncnc2c1ncn2[C@@H]1O[C@@H]2COP(=O)(S)OC[C@@H]3[C@@H](COP(=O)(S)O[C@H]2[C@H]1F)C[C@H]3n1cnc2c(=O)n3cnnc3[nH]c21 (single isomer, unassigned) [Example 21-1] |

Second part, the compound before the results:

| Compound | IC50 [1] [µM] | EC50 ([2]; 20 hours) [µM] | EC50 ([3]; 20 hours) [µM] | IC50 [4] [µM] | EC50 ([2]; Homo sapiens, THP1-Dual, 20 h) [µM] | EC50 ([3]; Homo sapiens, THP1-Dual, 20 h) [µM] |
| --- | --- | --- | --- | --- | --- | --- |
| Nc1ncnc2c1ncn2[C@@H]1C[C@@H]2COP(=O)(S)O[C@@H]3[C@H](F)[C@@H](COP(=O)(S)OC[C@H]21)O[C@H]3n1cnc2c1ncn1ccnc21 (single isomer, unassigned) [Example 8-3] | 0.3 | > 100 | > 100 | 0.89 |  |  |
| Nc1ncnc2c1ncn2[C@@H]1C[C@@H]2COP(=O)(S)O[C@@H]3[C@H](F)[C@@H](COP(=O)(S)OC[C@H]21)O[C@H]3n1cnc2c1ncn1ccnc21 (single isomer, unassigned) [Example 8-4] | 0.08 | 32.4 | 26.1 | 0.35 |  |  |
| NC(=O)c1cc([C@@H]2C[C@@H]3COP(=O)(S)O[C@H]4[C@@H](F)[C@H](n5cnc6c(N)ncnc65)O[C@@H]4COP(=O)(S)OC[C@H]32)ccn1 (single isomer, unassigned) [Example 9] | 0.02 | 23.5 | 18.4 | 1.41 |  |  |
| NC(=O)c1cc([C@@H]2C[C@@H]3COP(=O)(S)O[C@H]4[C@@H](F)[C@H](n5cnc6c(N)ncnc65)O[C@@H]4COP(=O)(S)OC[C@H]32)ccn1 (single isomer, unassigned) [Example 10] | 2.3 | > 100 | > 100 | 40.9 |  |  |
| NC(=O)c1cc([C@@H]2C[C@@H]3COP(=O)(S)O[C@H]4[C@H](F)[C@H](n5cnc6c(N)ncnc65)O[C@@H]4COP(=O)(S)OC[C@H]32)ccn1 (single isomer, unassigned) [Example 11] | 10.1 |  |  | 52.5 | > 100 | > 100 |
| NC(=O)c1cc([C@@H]2C[C@@H]3COP(=O)(S)O[C@H]4[C@@H](F)[C@H](n5cnc6c(N)ncnc65)O[C@@H]4COP(=O)(O)OC[C@H]32)ccn1 (single isomer, unassigned) [Example 13] | 0.1 |  |  | 4.78 | 90 | 54.6 |
| NC(=O)c1cc([C@@H]2C[C@@H]3COP(O)(=S)O[C@H]4[C@@H](F)[C@H](n5cnc6c(N)ncnc65)O[C@@H]4COP(=O)(O)OCC32)ccn1 (single isomer, unassigned) [Example 14] | 7.78 |  |  | > 100 | > 100 | > 100 |
| NC(=O)c1cc([C@@H]2C[C@@H]3COP(=O)(S)OC[C@@H]4[C@@H](COP(=O)(S)OC[C@H]32)C[C@H]4n2cnc3c(N)ncnc32)ccn1 (single isomer, unassigned) [Example 15-1] | > 100 |  |  | > 100 | > 100 | > 100 |
| Nc1ncnc2c1ncn2[C@@H]1C[C@@H]2COP(=O)(S)O[C@H]3[C@@H](F)[C@H](n4cnc5c4ncn4ccnc54)O[C@@H]3COP(=O)(S)OC[C@H]21 (single isomer, unassigned) [Example 17-1] | 3.55 |  |  | > 100 | > 100 | > 100 |
| Nc1ncnc2c1ncn2[C@@H]1C[C@@H]2COP(=O)(S)O[C@H]3[C@@H](F)[C@H](n4cnc5c4ncn4ccnc54)O[C@@H]3COP(=O)(S)OC[C@H]21 (single isomer, unassigned) [Example 17-2] | 0.46 | > 100 | > 100 | 39 |  |  |
| Nc1ncnc2c1ncn2[C@@H]1C[C@@H]2COP(=O)(S)O[C@H]3[C@@H](F)[C@H](n4cnc5c4ncn4ccnc54)O[C@@H]3COP(=O)(S)OC[C@H]21 (single isomer, unassigned) [Example 17-3] | 0.11 | 89.6 | 73.7 | 5.22 |  |  |
| O=P1(S)OC[C@@H]2[C@@H](COP(=O)(S)O[C@H]3[C@@H](F)[C@H](n4cnc5c4ncn4ccnc54)O[C@@H]3CO1)C[C@H]2n1cnc2c(Cl)ncnc21 (single isomer, unassigned) [Example 18-1] | 26.4 |  |  | > 100 | > 100 | > 100 |
| O=P1(S)OC[C@@H]2[C@@H](COP(=O)(S)O[C@H]3[C@@H](F)[C@H](n4cnc5c4ncn4ccnc54)O[C@@H]3CO1)C[C@H]2n1cnc2c(Cl)ncnc21 (single isomer, unassigned) [Example 18-2] | 35.7 | > 100 | > 100 | > 100 |  |  |
| O=P1(S)OC[C@@H]2[C@@H](COP(=O)(S)O[C@H]3[C@@H](F)[C@H](n4cnc5c4ncn4ccnc54)O[C@@H]3CO1)C[C@H]2n1cnc2c(Cl)ncnc21 (single isomer, unassigned) [Example 18-3] | 2.81 | > 100 | > 100 | > 100 |  |  |
| O=P1(S)OC[C@@H]2[C@@H](COP(=O)(S)O[C@H]3[C@@H](F)[C@H](n4cnc5c4ncn4ccnc54)O[C@@H]3CO1)C[C@H]2n1cnc2c(Cl)ncnc21 (single isomer, unassigned) [Example 18-4] | 2.18 | > 100 | > 100 | 24.5 |  |  |
